Data taken from patent US9273285B1, “Shorter colony-forming cell assay” (STEMCELL TECHNOLOGIES INC., priority 2008, dated 2016).

B1: FLT-3 Ligand (protein, UniProt P49771 27-235, looked up)
Fms-related tyrosine kinase 3 …: TQDCSFQHSPISSDFAVKIRELSDYLLQDYPVTVASNLQDEELCGGLWRLVLAQRWMERLKTVAGSKMQGLLERVNTEIHFVTKCAFQPPPSCLRFVQTNISRLLQETSEQLVALKPWITRQNFSRCLELQCQPDSSTLPPPWSPRPLEATAPTAPQPPLLLLLLLPVGLLLLAAAWCLHWQRTRRRTPRPGEQVPPVPSPQDLLLVEH
notes: cytokine added to the culture medium

Tested on: Human CB mononuclear cells
Test: Hematopoietic colony-forming cell (CFC) assay in methylcellulose-based MethoCult media
Design: key to Size, Morphology ranking: Ranking on the basis of colony size and morphology: 1 is best; 4 is worst
Conditions: for Colony numbers as percentage of colony numbers in medium without extra cytokines, Average: average of experiments
Description: Frozen ficolled cord blood mononuclear cells were thawed, nucleated cells were counted by microscopy using a hemacytometer after dilution in 3% acetic acid to lyse mature erythrocytes. The cells were diluted with Iscove's MDM to 10-fold the desired cell concentration. 0.4 mL of the cell suspensions were added into an aliquot of test MethoCult® medium (4 mL) and mixed by vortexing. 1.1 mL of each cell/medium mixture was dispensed into triplicate 35 mm culture dishes using 3 mL syringes with blunt end needles, with 1.1 mL of medium per dish. All cultures were incubated for 4, 7, 10 or the standard 14 days at 37° C., 5% CO2, 100% humidity. Colonies were enumerated and classified by bright-field microscopy into the following categories based on size and morphology: CFU-E, BFU-E, CFU-GM, CFU-GEMM (StemCell Technologies, Colony Atlas). […]
Methocult® H4435 medium, which contains the 6 cytokines IL-3, IL-6, SCF, GM-CSF, G-CSF and EPO, was supplemented with Zinc Sulphate at final concentrations 2, 10 and 20 μM and 4 different CB samples were cultured for 7 and 14 days as described in Example 1. […] In one experiment, CFU-GM colonies were larger in the presence of zinc, whereas BFU-E colony size was unchanged.
To examine if adding extra cytokines can further increase colony growth, culture medium as in Example 5 was supplemented with FL, TPO or both. Cultures were set up using Cord Blood cells and colonies were counted after 7 and 14 days. […] In three of the four experiments colony size and morphology after 14 days were very similar whether or not TPO and/or FL were present in the medium. In one experiment (Exp 4 in Table 2) colonies were slightly larger in cultures without TPO and FL compared to cultures with TPO and FL. […]

[1] = Exp. 1, 7 days, added to MethoCult medium with IL-3, IL-6, G-CSF, GM-CSF, SCF, EPO, cord blood

Molecule	Colony numbers as percentage of colony numbers in medium without extra cytokines (Exp. 1, 7 days) [%]	Size, Morphology ranking (Exp. 1, 7 days)	Colony numbers per 10^5 cells plated [1] [per 10^5 cells plated]	Colony numbers as percentage of colony numbers in medium without extra cytokines (Exp. 1, 14 days) [%]	Colony numbers per 10^5 cells plated (Exp. 1, 14 days) [per 10^5 cells plated]	Size, Morphology ranking (Exp. 1, 14 days)	Colony numbers as percentage of colony numbers in medium without extra cytokines (Exp. 2, 7 days) [%]	Colony numbers per 10^5 cells plated (Exp. 2, 7 days) [per 10^5 cells plated]	Size, Morphology ranking (Exp. 2, 7 days)	Colony numbers as percentage of colony numbers in medium without extra cytokines (Exp. 2, 14 days) [%]	Colony numbers per 10^5 cells plated (Exp. 2, 14 days) [per 10^5 cells plated]	Size, Morphology ranking (Exp. 2, 14 days)	Colony numbers as percentage of colony numbers in medium without extra cytokines (Exp. 3, 7 days) [%]	Colony numbers per 10^5 cells plated (Exp. 3, 7 days) [per 10^5 cells plated]	Size, Morphology ranking (Exp. 3, 7 days)	Colony numbers as percentage of colony numbers in medium without extra cytokines (Exp. 3, 14 days) [%]	Colony numbers per 10^5 cells plated (Exp. 3, 14 days) [per 10^5 cells plated]	Size, Morphology ranking (Exp. 3, 14 days)	Colony numbers as percentage of colony numbers in medium without extra cytokines, Average (7 days) [%]	Colony numbers as percentage of colony numbers in medium without extra cytokines, Average (14 days) [%]	further results
Thrombopoietin [TPO]	78	2	210	93	287	1	102	393	1	102	480	1	107	317	2	107	360	1	95	101	
O=S(=O)([O-])[O-].[Zn+2] [Zinc Sulphate]																					total colony numbers on day 7 and 14 relative to media containing no Zinc, or 2 μM of Zinc (10 or 20 μM in Methocult H4435, 4 CB samples (FIG. 4)): increased; Effect on colony size after 14 days of culture (in Methocult H4435, 3 of the 4 experiments): no effects of zinc on colony size was observed; Colony size and morphology on day 7 compared to zinc-free medium (in Methocult H4435, particularly at 10 and 20 uM, three of 4 experiments): the colonies were larger, and more evenly spread out
B1	99	2	267	110	337	1	107	413	2	99	463	1	99	293	3	94	317	1	101	101	
